{
  "source": "ChEMBL document CHEMBL1201862",
  "about": "“PubChem BioAssay data set” (2004)",
  "key": {"[1]": {"biological_target": "T1, Disintegrin and metalloproteinase domain-containing protein 17 (Homo sapiens, UniProt P78536)", "T1 sequence (P78536 whole entry, the tested form may be a part)": "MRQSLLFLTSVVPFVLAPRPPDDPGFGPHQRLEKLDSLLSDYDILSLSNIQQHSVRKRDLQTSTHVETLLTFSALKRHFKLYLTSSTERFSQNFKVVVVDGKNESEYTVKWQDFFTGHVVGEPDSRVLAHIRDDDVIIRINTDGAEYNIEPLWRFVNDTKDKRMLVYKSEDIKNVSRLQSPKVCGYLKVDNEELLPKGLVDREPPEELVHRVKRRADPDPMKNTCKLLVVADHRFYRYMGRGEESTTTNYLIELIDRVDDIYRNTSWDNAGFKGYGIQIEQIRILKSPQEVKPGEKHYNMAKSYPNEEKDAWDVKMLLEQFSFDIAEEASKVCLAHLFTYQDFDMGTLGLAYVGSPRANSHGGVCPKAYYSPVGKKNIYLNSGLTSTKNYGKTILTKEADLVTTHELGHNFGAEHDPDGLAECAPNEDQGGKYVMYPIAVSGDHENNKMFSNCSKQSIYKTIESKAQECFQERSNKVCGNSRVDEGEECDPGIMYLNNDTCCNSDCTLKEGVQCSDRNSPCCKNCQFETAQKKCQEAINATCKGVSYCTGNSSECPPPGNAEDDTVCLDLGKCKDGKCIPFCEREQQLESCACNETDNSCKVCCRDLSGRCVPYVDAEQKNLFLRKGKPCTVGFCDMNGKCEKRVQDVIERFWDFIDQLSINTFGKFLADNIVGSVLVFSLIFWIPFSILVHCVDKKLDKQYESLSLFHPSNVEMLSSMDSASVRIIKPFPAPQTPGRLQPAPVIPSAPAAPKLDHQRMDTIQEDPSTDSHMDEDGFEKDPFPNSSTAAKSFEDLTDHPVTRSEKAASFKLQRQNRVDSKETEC", "assay": "exosite inhibitors of ADAM17, dose response, biochemical (AID 743260)"}, "[2]": {"assay": "ADAM10 protease inhibitors, dose response, selectivity assay for ADAM17 exosite inhibitor project, biochemical, FRET peptide substrate, recombinant human ADAM10 (AID 743259);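 note: ADAM10 enzyme cleaving a FRET peptide substrate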"}, "[3]": {"assay": "ADAM10 inhibitors, peptide cleavage, dose response, biochemical, QFRET (AID 743254);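 note: ADAM10 enzyme with the DM2 quenched FRET peptide as substrate; EDANS fluorescence gain as the protease cuts the substrate; inhibitor potency against ADAM10 proteolytic activity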"}, "[4]": {"biological_target": "T1, Disintegrin and metalloproteinase domain-containing protein 17", "assay": "ADAM17 protease inhibitors, dose response, counter-screen for ADAM10 exosite inhibitor project, biochemical, quenched FRET substrate (AID 743253)"}, "[5]": {"test_system": "Streptococcus sp. 'group A'", "assay": "growth inhibition of control SK(-) GAS strain, dose response, counter-screen for streptokinase expression inhibitor project, luminescence, kanamycin, BacTiterGlo, confirmation (AID 1900)", "assay_type": "functional, organism-based"}, "Streptococcus": {"test_system": "Streptococcus", "assay": "Group A Streptococcus viability loss, dose response, counter-screen for streptokinase expression inhibitor project, luminescence, BacTiterGlo (AID 1915);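 note: potency for reduction of bacterial viability or growth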", "assay_type": "functional, organism-based"}, "[6]": {"biological_target": "T2, Probable nicotinate-nucleotide adenylyltransferase (Staphylococcus aureus (strain N315), UniProt P65502)", "T2 sequence (P65502 whole entry)": "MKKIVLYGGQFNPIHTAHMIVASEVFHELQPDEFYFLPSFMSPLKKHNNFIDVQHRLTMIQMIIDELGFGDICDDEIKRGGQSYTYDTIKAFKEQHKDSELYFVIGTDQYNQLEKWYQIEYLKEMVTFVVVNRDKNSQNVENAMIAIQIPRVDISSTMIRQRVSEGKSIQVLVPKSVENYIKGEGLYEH", "assay_type": "functional, Staphylococcus aureus subsp. aureus N315"}, "[7]": {"biological_target": "T2, Probable nicotinate-nucleotide adenylyltransferase", "assay_type": "functional, Staphylococcus aureus subsp. aureus N315", "details": "read-out: IC50_Mean"}, "[8]": {"biological_target": "T3, Fructose-bisphosphate aldolase (Mycobacterium tuberculosis, UniProt P9WQA3)", "T3 sequence (P9WQA3 whole entry)": "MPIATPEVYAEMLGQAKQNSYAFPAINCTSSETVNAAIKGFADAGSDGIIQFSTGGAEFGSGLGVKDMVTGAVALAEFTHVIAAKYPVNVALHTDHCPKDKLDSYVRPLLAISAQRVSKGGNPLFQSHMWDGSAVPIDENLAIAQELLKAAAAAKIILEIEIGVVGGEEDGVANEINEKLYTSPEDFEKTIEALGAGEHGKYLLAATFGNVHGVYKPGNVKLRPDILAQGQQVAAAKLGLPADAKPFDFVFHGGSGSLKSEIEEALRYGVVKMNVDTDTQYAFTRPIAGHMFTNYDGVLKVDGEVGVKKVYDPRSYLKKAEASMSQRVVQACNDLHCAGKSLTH", "assay": "Fluorescence-based biochemical high throughput dose response assay for inhibitors of the fructose-bisphosphate aldolase (FBA) of M. tuberculosis.", "assay_type": "functional"}, "fMet-Leu-Phe receptor": {"biological_target": "T4, fMet-Leu-Phe receptor (Homo sapiens, UniProt P21462)", "T4 sequence (P21462 whole entry)": "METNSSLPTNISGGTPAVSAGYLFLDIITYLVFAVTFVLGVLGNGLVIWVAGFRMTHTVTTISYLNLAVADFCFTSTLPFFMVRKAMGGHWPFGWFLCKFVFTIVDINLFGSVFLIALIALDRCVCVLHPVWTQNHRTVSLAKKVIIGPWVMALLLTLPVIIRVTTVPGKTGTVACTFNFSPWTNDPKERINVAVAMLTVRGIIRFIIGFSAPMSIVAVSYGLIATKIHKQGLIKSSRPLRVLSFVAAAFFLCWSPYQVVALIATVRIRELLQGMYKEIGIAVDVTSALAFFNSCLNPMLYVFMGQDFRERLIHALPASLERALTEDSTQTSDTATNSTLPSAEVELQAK", "assay": "FPR ligands, dose response (AID 519)", "assay_type": "functional"}, "Beta-lactamase [9]": {"biological_target": "Beta-lactamase (Salmonella choleraesuis (strain SC-B67), UniProt Q5J463)", "sequence (Q5J463 whole entry)": "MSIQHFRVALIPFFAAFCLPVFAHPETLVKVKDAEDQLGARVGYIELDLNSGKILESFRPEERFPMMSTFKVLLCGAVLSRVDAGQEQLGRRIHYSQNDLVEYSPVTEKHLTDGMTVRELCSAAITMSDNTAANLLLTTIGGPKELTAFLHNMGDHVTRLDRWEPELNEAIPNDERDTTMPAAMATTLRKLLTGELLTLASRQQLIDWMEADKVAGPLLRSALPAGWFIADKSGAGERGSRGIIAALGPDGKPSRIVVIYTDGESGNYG", "assay": "Epi-absorbance-based counterscreen for selective VIM-2 inhibitors: dose response biochemical high throughput screening assay to identify inhibitors of TEM-1 serine-beta-lactamase."}, "Beta-lactamase [10]": {"biological_target": "T5, Beta-lactamase (Pseudomonas aeruginosa, UniProt Q79MP6)", "T5 sequence (Q79MP6 whole entry)": "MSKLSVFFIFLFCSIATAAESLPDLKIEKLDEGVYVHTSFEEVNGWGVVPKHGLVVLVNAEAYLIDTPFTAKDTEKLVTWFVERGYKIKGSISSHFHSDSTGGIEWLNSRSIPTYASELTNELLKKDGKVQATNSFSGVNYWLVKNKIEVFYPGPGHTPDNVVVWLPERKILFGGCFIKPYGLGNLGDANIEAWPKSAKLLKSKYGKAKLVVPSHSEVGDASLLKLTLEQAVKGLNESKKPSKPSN", "assay": "IMP-1 metallo-beta-lactamase inhibitors, dose response, selectivity assay for VIM-2 inhibitor project, biochemical, epi-absorbance (AID 1920)"}, "Streptokinase A": {"biological_target": "T6, Streptokinase A (Streptococcus pyogenes serotype M1, UniProt P10520)", "T6 sequence (P10520 whole entry)": "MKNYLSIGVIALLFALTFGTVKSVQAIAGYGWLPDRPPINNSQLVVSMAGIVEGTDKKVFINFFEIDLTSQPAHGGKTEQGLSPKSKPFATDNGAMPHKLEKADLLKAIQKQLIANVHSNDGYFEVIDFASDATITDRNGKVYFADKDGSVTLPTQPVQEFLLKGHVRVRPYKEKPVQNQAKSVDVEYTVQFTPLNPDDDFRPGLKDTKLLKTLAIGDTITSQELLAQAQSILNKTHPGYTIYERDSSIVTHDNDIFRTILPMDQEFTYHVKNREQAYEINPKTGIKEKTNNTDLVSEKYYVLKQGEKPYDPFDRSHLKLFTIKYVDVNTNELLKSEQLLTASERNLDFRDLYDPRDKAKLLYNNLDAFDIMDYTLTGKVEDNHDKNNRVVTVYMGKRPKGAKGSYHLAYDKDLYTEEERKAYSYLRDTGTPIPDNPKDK", "assay": "S. pyogenes streptokinase expression inhibitors, potency, dose response, plasminogen activation absorbance, OD405 (AID 1914);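 note: secreted streptokinase activity via plasminogen activation per viability signal from cell pellet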", "assay_type": "functional, Streptococcus pyogenes M1 GAS"}, "Beta-lactamase [11]": {"biological_target": "T5, Beta-lactamase", "assay": "[…] counterscreen for selective VIM-2 inhibitors: dose response biochemical high throughput screening assay to identify inhibitors of IMP-1 metallo-beta-lactamase."}, "[12]": {"biological_target": "T7, RNA-binding protein pos-1 (Caenorhabditis elegans, UniProt G5EF15)", "T7 sequence (G5EF15 whole entry)": "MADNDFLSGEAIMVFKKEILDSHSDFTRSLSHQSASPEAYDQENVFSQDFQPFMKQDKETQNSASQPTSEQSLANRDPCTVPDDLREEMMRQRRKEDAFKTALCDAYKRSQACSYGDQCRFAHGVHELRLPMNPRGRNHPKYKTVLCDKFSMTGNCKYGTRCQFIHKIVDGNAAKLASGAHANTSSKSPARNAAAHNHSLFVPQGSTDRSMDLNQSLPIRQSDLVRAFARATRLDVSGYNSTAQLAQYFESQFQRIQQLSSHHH", "assay": "inhibitors of POS-1/mex-3 RNA binding, dose response, biochemical, fluorescence polarization (AID 1964);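 note: purified POS-1 fused to maltose binding protein made in E. coli; potency of compounds blocking POS-1 binding to fluorescent RNA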"}, "[13]": {"biological_target": "T8, Zinc finger protein mex-5 (Caenorhabditis elegans, UniProt Q9XUB2)", "T8 sequence (Q9XUB2 whole entry)": "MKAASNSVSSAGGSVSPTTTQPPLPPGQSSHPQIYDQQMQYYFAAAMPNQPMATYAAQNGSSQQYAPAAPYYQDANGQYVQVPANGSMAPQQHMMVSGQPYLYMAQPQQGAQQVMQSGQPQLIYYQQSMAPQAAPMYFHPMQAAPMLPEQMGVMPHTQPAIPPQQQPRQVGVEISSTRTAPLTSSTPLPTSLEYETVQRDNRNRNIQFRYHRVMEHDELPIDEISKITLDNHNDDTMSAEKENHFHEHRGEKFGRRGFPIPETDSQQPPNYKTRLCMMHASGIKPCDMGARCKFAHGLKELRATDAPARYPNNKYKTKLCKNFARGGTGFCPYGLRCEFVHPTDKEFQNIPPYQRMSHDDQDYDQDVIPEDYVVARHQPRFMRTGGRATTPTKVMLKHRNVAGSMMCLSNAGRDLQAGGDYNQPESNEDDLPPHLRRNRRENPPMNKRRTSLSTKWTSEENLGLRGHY", "assay": "MEX-5/TCR-2 RNA interaction inhibitors, dose response, biochemical, C. elegans, fluorescence polarization (AID 1960)"}},
  "note": "Activity calls are given as the source filed them.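 Throughout, for IC50 Mean: confirmatory dose-response retesting of NadD inhibitor hits first found in an ultra-high-throughput screen.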",
  "data": [
    {"smiles": "COc1ccc(S[C@@H](CCN2CC[C@H](C)CCC2=O)c2ccccc2)cc1", "values": [
      {"measurement": "IC50", "setting": "[1]", "result": "> 69.5 µM (inactive)"},
      {"measurement": "IC50", "setting": "[2]", "result": "19.3 µM (inactive)"}
    ]},
    {"smiles": "COc1cccc(C(=O)NNC(=O)C(=O)Nc2ccc(C)c(Cl)c2)c1", "values": [
      {"measurement": "IC50", "setting": "[3]", "result": "8.71 µM (active)"},
      {"measurement": "IC50", "setting": "[4]", "result": "> 69.5 µM (inactive)"}
    ]},
    {"smiles": "O=S(=O)(Nc1nccs1)c1ccc(Nc2nnc(-c3ccccc3)c3ccccc23)cc1", "values": [
      {"measurement": "EC50", "setting": "[5]", "result": "1.06 µM (active)"},
      {"measurement": "EC50", "setting": "Streptococcus", "result": "3.67 µM (active)"},
      {"measurement": "IC50", "setting": "[6]", "result": "5.9 µM (active)"},
      {"measurement": "IC50", "setting": "[7]", "result": "29.2 µM (active)"}
    ]},
    {"smiles": "CCOC(=O)COc1ccc2c(c1)C(=O)CC(C)(C)O2", "values": [
      {"measurement": "IC50", "setting": "[8]", "result": "1.55 µM (active)"}
    ]},
    {"smiles": "Cc1cccc(Nc2ccccc2C(=O)NCc2ccco2)c1C", "values": [
      {"measurement": "Ki", "setting": "fMet-Leu-Phe receptor", "result": "> 66.7 µM (inactive)"}
    ]},
    {"smiles": "Cc1cc(C)n(-c2nc(SCC(=O)O)c3c4c(sc3n2)COC(C)(C)C4)n1", "values": [
      {"measurement": "IC50", "setting": "Beta-lactamase [9]", "result": "> 59.6 µM (inactive)"},
      {"measurement": "IC50", "setting": "Beta-lactamase [10]", "result": "> 59.6 µM (inactive)"},
      {"measurement": "EC50", "setting": "[5]", "result": "8.1 µM (active)"},
      {"measurement": "EC50", "setting": "Streptokinase A", "result": "> 150 µM (not active)"},
      {"measurement": "IC50", "setting": "Beta-lactamase [11]", "result": "> 59.6 µM (inactive)"},
      {"measurement": "EC50", "setting": "Streptococcus", "result": "> 150 µM (not active)"}
    ]},
    {"smiles": "CCCCC1=CC2=CC(=O)C(C)(OC(=O)CCc3ccccc3)C(=O)C2=CO1", "note": "(stereo not given)", "values": [
      {"measurement": "EC50", "setting": "[12]", "result": "41.6 µM (active)"},
      {"measurement": "EC50", "setting": "[13]", "result": "> 150 µM (not active)"},
      {"measurement": "IC50", "setting": "[6]", "result": "8.81 µM (active)"},
      {"measurement": "IC50", "setting": "[7]", "result": "19.8 µM (active)"}
    ]}
  ]
}
